From patent US20230304064A1, “AUTOMATED, DIGITAL DISPENSING PLATFORM FOR MICRODILUTION ANTIMICROBIAL SUSCEPTIBILITY TESTING” (priority 2016, published 2023)
Where two headings read alike, the source gives them in different places.

Key:
[1] = system: carbapenem-resistant Escherichia coli clinical isolates (blaKPC); assay: DDM (digital dispensing method) MIC testing of CRE isolates; type: cell-based; settings: Escherichia coli, read-out: DDM modal MICs
Experimental: (§1) Bacterial strains: The 10 de-identified CRE clinical isolates used in the study were collected at our institution under Institutional Review Board-approved protocols and were sequenced through the carbapenem-resistant Enterobacteriaceae genome initiative at the Broad Institute (Cambridge, MA). All contained a Klebsiella pneumoniae carbapenemase (blaKPC) gene and were colony-purified, minimally passaged, and stored at -80° C. prior to use in this study.
(§2) After incubation, bacterial growth was quantified by measurement of OD600 using an Epoch (BioTek, Winooski, VT) or Spark 10 M microplate reader (Tecan, Morrisville, NC). An OD600 reading of 0.08 or greater (approximately twice typical background readings in wells containing broth alone) was considered indicative of bacterial growth (as also appreciable by visual assessment).
(§3) Precision and accuracy. […] Modal DDM MICs were calculated by taking the mode of all DDM MIC measurements obtained for a given antibiotic-strain combination, inclusive of initial MIC titrations and single-antibiotic rows/columns in synergy arrays (Table 5).

[2] = system: carbapenem-resistant Klebsiella pneumoniae clinical isolates (blaKPC); assay: as above; type: cell-based; settings: for MIC: Klebsiella pneumoniae, read-out: DDM modal MICs
Experimental: as §1, §2, §3

[3] = system: 4 bacterial screening strains (BIDMC 4, BIDMC 5, BIDMC 12A, and BIDMC 15); assay: Checkerboard synergy testing screen (FICI-MIN); type: cell-based, Klebsiella pneumoniae; Escherichia coli; settings: range over strains; read-out: MICs of the strains
[4] = system: 14 Enterobacteriaceae strains presumptively expressing extended spectrum beta-lactamase enzymes; assay: Inoculum effect by digitally dispensed checkerboard of bacteria and antibiotic; type: cell-based; settings: inkjet printing method, inoculum above/below CLSI-recommended
From the text: Inoculum effect experiments comprise a series of broth microdilution experiments in which the cell density of the bacterial inoculum is varied (often 10-fold) across multiple identical doubling dilutions of antibiotics. The MICs are then interpreted at each inoculum concentration.
There is currently no practical way to test for an inoculum effect within the workflow of a clinical laboratory, as such testing would require a highly laborious manual process of testing different inoculum levels with several potential antimicrobials. […] By varying the droplet size during digital printing of a bacterial suspension as described in the preceding section, a desired inoculum of bacteria can be added to each testing well. More specifically, doubling dilutions of bacterial inocula can be performed if desired, thereby establishing the relationship between inoculum and MIC through an inoculum dose-response curve.
We investigated the inoculum effect for cefepime (a fourth generation cephalosporin) on 14 Enterobacteriaceae strains presumptively expressing extended spectrum beta-lactamase enzymes based on third generation cephalosporin resistance. Bacteria and antibiotics were both dispensed as orthogonal, combinatorial two-fold dilution series using our digital dispensing method to create a checkerboard array. […]

[5] = system: E. coli ATCC 25922; assay: Microscopy-based AST (MAST): cell morphology at the MIC; settings: MAST, 2-hour incubation
Experimental: Briefly, antibiotics are added to solidified microwell surfaces which are subsequently inoculated with 200 nL of a standardized bacterial suspension. Both antibiotic and bacterial cell dispensing are performed using the HP D300 system. Following incubation at 35±2° C., plates are imaged on a Zeiss Cell Observer microscope operating in brightfield mode with a 40X long working distance objective. The microscope is equipped with an automated stage. […] The z-position of the poloxamer surface in the first well is set manually after which the software directs the stage to each subsequent well, collecting a z-series (20 slices at 2 µM per slice with the center of the z-series defined by the microscope’s autofocus feature) with no further operator intervention. Z-series are collapsed using the Extended Depth of Focus feature in the Zeiss Zen Blue software and saved as individual images.
Microscopy-based AST (MAST). […] Two-hundred nL of bacteria in NaCl-P20 suspended at a density of 0.1 McFarland were then delivered to the center of each well by digital dispensing. Immediately after inoculation, plates were incubated at 35±2° C. for 2 hours, and held at room temperature for 2 hours during transport and imaging.
Plates were imaged with a Zeiss Cell Observer microscope with settings described in the “quantification of bacterial dispensing” section. […]

[6] = system: E. cloacae ATCC 13047; assay: MIC testing by broth microdilution and D300 digital dispensing (precision study); type: cell-based, Enterobacter cloacae; settings: EUCAST criteria
[7] = system: eighty de-identified Enterobacteriaceae clinical isolates; assay: organism not typed; type: cell-based; settings: eighty clinical isolates; reference microdilution; CLSI criteria, EUCAST for colistin
Experimental: K. pneumonia BIDMC12A is a previously described, carbapenem resistant clinical isolate (14) expressing a KPC-3 carbapenemase. The eighty de-identified Enterobacteriaceae clinical isolates (Table 1) used for verification studies were collected at our institution under IRB-approved protocols. All strains were minimally passaged and stored at -80° C. prior to use in this study.
Verification study: Digital dispensing and reference method testing were performed in parallel using the same inoculum preparation. Microdilution reference panels were pre-prepared and stored at -80° C. until use (less than 2 weeks). D300 test method panels were prepared fresh each day of use.
Accuracy was evaluated using established guidelines (16, 17). The MIC determined by the digital dispensing method was compared with the MIC determined by the broth microdilution reference method. Essential agreement, overall essential agreement, and categorical agreement were evaluated as described in the precision study.

[8] = system: KPC-producing CRE K. pneumoniae strains; assay: Checkerboard synergy, spectrum of activity evaluation; type: cell-based, Klebsiella pneumoniae; settings: strain BIDMC 18A
Experimental: Spectrum of activity evaluation. […] Each selected combination was tested in duplicate on separate days against the 10 clinical KPC-producing CRE strains (5 K. pneumoniae and 5 E. coli) listed in Table 5, including the original 4 used in the synergy testing screen.

[9] = system: carbapenem-resistant Enterobacteriaceae; settings: cited from earlier work
[10] = system: P. mirabilis ATCC 702; assay: MIC testing by broth microdilution and D300 digital dispensing (precision study); settings: precision study, EUCAST criteria
Experimental: Broth microdilution testing: Broth microdilution was performed using the colony suspension method according to CLSI guidelines (13). Colistin testing was consistent with the joint CLSI-EUCAST (European Committee on Antimicrobial Susceptibility Testing) Polymyxin Breakpoints Working Group guidelines (15). Serial two-fold dilutions of antimicrobials at double concentration were made in 96-well plates (Evergreen Scientific, Los Angeles, CA) using cation adjusted Mueller-Hinton broth (BD Diagnostics, Franklin Lakes, NJ) in a 50 µl volume. […] MIC was defined as the lowest concentration of antimicrobial resulting in complete inhibition of growth as determined visually.
Bacterial suspensions were prepared as for broth microdilution and adjusted directly to the final inoculum concentration of 5 × 10^5 CFU ml^-1 in a 50 µl total assay volume. […] Cell growth was quantified by measurement of optical density at 600 nm (OD600) with an Epoch microplate reader (BioTek, Winooski, VT). A custom python script was used to classify wells with OD600 ≧ 0.08 (approximately two-fold above typical background readings) as having bacterial growth. […]
Precision analysis: A precision analysis was conducted according to established guidelines (16, 17). […] The modal MIC for both methods was determined using MIC values for on-scale measurements. Log2 difference of each measurement from the mode was recorded.

Row | MIC ([2]; BIDMC 18A, KPN, KPC type 2) | MIC [3] | Compound | MIC ([1]; BIDMC 6, ECO, KPC type 2) | MIC ([1]; BIDMC 9, ECO, KPC type 2) | MIC ([1]; BIDMC 15, ECO, KPC type 2) | MIC ([1]; BIDMC 17A, ECO, KPC type 2) | MIC ([1]; BIDMC 20A, ECO, KPC type 3) | MIC ([2]; BIDMC 4, KPN, KPC type 3) | MIC ([2]; BIDMC 5, KPN, KPC type 3) | MIC ([2]; BIDMC 10, KPN, KPC type 3) | MIC ([2]; BIDMC 12A, KPN, KPC type 3) | inoculum effect [4] | cell morphology at the MIC [5] | categorical susceptibility result [6] | Non-susceptible strains (%) [7] | Non-susceptible strains n [7] | DDM modal MICs ([2]; BIDMC 5, KPN, KPC type 3) | MIC [8] | share of carbapenem-resistant Enterobacteriaceae against which the drug is effective [9] | categorical susceptibility result [10]
1 | 64 µg/mL | 8 to 64 µg/mL | C[C@@H](O)[C@H]1C(=O)N2C(C(=O)O)=C(S[C@@H]3CN[C@H](C(=O)Nc4cccc(C(=O)O)c4)C3)[C@H](C)[C@H]12 [ETP, ertapenem] | 8 µg/mL | 8 µg/mL | 32 µg/mL | 8 µg/mL | 4 µg/mL | 32 µg/mL | 16 µg/mL | 16 µg/mL | 32 µg/mL | – | – | – | – | – | – | – | – | –
2 | – | – | CO/N=C(\C(=O)N[C@@H]1C(=O)N2C(C(=O)[O-])=C(C[N+]3(C)CCCC3)CS[C@H]12)c1csc(N)n1 [FEP, cefepime] | 8 µg/mL | 32 µg/mL | 4 µg/mL | 4 µg/mL | 8 µg/mL | 64 µg/mL | 16 µg/mL | 16 µg/mL | 16 µg/mL | pronounced | filamented bacteria with a pronounced central bulge | – | – | – | – | – | – | –
3 | – | – | Colistin [Colistin (CL)] | – | – | – | – | – | – | – | – | – | – | – | resistance | 21.5% | 17 | 0.5 mg/L | > 128 µg/mL | > 85% | resistance
